Data set [1] deals with Plasmodium falciparum. As to the kind of experiment: Antiplasmodial activity against synchronized ring stage of chloroquine-sensitive Plasmodium falciparum 3D7 infected in human erythrocytes after 48 hrs by SYBR Green 1 dye based fluorescence assay. It counts as functional, organism-based. Particulars: 3D7, 48 h.
A short description of data set [2]: Selectivity index, ratio of IC50 for human HeLa cells to IC50 for synchronized ring stage of chloroquine-sensitive Plasmodium falciparum 3D7 infected in human erythrocytes. Format: toxicity, cell-based. Particulars: read-out: Ratio IC50.
Data set [3] deals with Plasmodium falciparum. As to the kind of experiment: Antiplasmodial activity against synchronized ring stage of chloroquine-resistant Plasmodium falciparum INDO infected in human erythrocytes after 48 hrs by SYBR Green 1 dye based fluorescence assay. It counts as functional, organism-based.
Data set [4] can be described thus: Resistance index, ratio of IC50 for synchronized ring stage of chloroquine-resistant Plasmodium falciparum Dd2 infected in human erythrocytes to IC50 for synchronized ring stage of chloroquine-sensitive Plasmodium falciparum 3D7 infected in human erythrocytes. Format: functional.
Data set [5] in a line: Selectivity index, ratio of IC50 for mouse L929 cells to IC50 for synchronized ring stage of chloroquine-sensitive Plasmodium falciparum 3D7 infected in human erythrocytes. Format: toxicity, cell-based. Particulars: read-out: Ratio IC50.
Data set [6] is described as follows: Resistance index, ratio of IC50 for synchronized ring stage of chloroquine-resistant Plasmodium falciparum INDO infected in human erythrocytes to IC50 for synchronized ring stage of chloroquine-sensitive Plasmodium falciparum 3D7 infected in human erythrocytes. Format: functional.
For data set [7], the system named is Plasmodium falciparum. Nature of the data set: Antiplasmodial activity against synchronized ring stage of chloroquine-resistant Plasmodium falciparum Dd2 infected in human erythrocytes after 48 hrs by SYBR Green 1 dye based fluorescence assay. Format: functional, organism-based. Particulars: Dd2, 48 h.
Data set [8] deals with Plasmodium falciparum. Nature of the data set: Potentiation of artemisinin-induced antiplasmodial activity against synchronized ring stage of chloroquine-sensitive Plasmodium falciparum 3D7 infected in human erythrocytes assessed as fold reduction in artemisinin IC50 relative to artemisinin alone. It counts as functional.

Where only a bound is given, the exact number is not on record here.

The IC50 is the concentration needed to halve the response being measured. Lower therefore signals greater potency in that assay. In the data set with Plasmodium falciparum [1], `C=CCOc1c(OC)cc(/C=C/C(=O)c2cc3ccccc3oc2=O)cc1-c1cc(/C=C/C(=O)c2cc3ccccc3oc2=O)cc(OC)c1OCC=C` registered an IC50 of 18.4 µM.
With `C=CCOc1c(OC)cc(/C=C/C(=O)c2ccc3c(c2)OCO3)cc1-c1cc(/C=C/C(=O)c2ccc3c(c2)OCO3)cc(OC)c1OCC=C`, the IC50 is 38 µM with Plasmodium falciparum [1], 3.8 µM with Plasmodium falciparum [3] and 3.8 µM with Plasmodium falciparum [7]. Moreover, the selectivity ratio in data set [2] and in data set [5] was above 2.6 throughout. In addition, the “Ratio IC50” value in data set [4] and in data set [6] was 0.1 in each case.
Consider `C=CCOc1ccc(C(=O)/C=C/c2cc(OC)c(OCC=C)c(-c3cc(/C=C/C(=O)c4ccc(OCC=C)cc4)cc(OC)c3OCC=C)c2)cc1`, for which the IC50 with Plasmodium falciparum [1] was 2 µM; in the data set with Plasmodium falciparum [3], above 50 µM; in the data set with Plasmodium falciparum [7], 16.6 µM. Besides, the selectivity ratio in data set [2] and in data set [5] was above 100 each time. Also, the “Ratio IC50” value in data set [4] is 8.3; in data set [6] it was above 25.
Compound `C=CCOc1c(OC)cc(/C=C/C(=O)c2ccc(Br)cc2)cc1-c1cc(/C=C/C(=O)c2ccc(Br)cc2)cc(OC)c1OCC=C` returned an IC50 in the data set on Plasmodium falciparum [1] above 50 µM.
Turning to `C[C@@H]1CC[C@H]2[C@@H](C)C(=O)O[C@@H]3O[C@@]4(C)CC[C@@H]1[C@]32OO4` [ARTEMISININ], the selectivity ratio in data set [2] and in data set [5] was above 200 in each case. The IC50 in the data set with Plasmodium falciparum [3] was found to be 0.015 µM; in the data set with Plasmodium falciparum [7], 0.013 µM. Besides, the “Ratio IC50” value in data set [4] is on record as 0.87; in the data set on Plasmodium falciparum [8], 1.7 - 3.7; in data set [6] it was 1.
In the case of `C=CCOc1c(OC)cc(/C=C/C(=O)c2ccc([N+](=O)[O-])cc2)cc1-c1cc(/C=C/C(=O)c2ccc([N+](=O)[O-])cc2)cc(OC)c1OCC=C`, the IC50 in the data set on Plasmodium falciparum [1] is 25 µM; in the data set on Plasmodium falciparum [3] it was 5 µM; with Plasmodium falciparum [7], 9.3 µM. The figures for the selectivity ratio in data set [2] and in data set [5] were above 4 and 3.2, respectively. In addition, the “Ratio IC50” value in data set [4] stood at 0.37; in data set [6], 0.2.
The compound `C=CCOc1ccc(C(=O)/C=C/c2cc(OC)c(OCC=C)c(-c3cc(/C=C/C(=O)c4ccc(OCC=C)cc4OCC=C)cc(OC)c3OCC=C)c2)c(OCC=C)c1` had an IC50 in the data set with Plasmodium falciparum [1] of 63 µM.
With `COc1cc(/C=C/C(=O)c2ccccc2)cc(-c2cc(/C=C/C(=O)c3ccccc3)cc(OC)c2OC)c1OC`, the IC50 with Plasmodium falciparum [1] amounted to 9.3 µM; with Plasmodium falciparum [3], 3.7 µM; in the data set with Plasmodium falciparum [7], 3.7 µM. The results for the selectivity ratio in data set [2] and in data set [5] were 12.4 and 1.1, respectively. Also, the “Ratio IC50” value in data set [4] and in data set [6] was 0.4 throughout.
Regarding `C=CCOc1c(OC)cc(/C=C/C(=O)c2ccccc2)cc1-c1cc(/C=C/C(=O)c2ccccc2)cc(OC)c1OCC=C`, the IC50 stood at 7 µM with Plasmodium falciparum [1], 3.5 µM in the data set with Plasmodium falciparum [3] and 2.1 µM in the data set with Plasmodium falciparum [7]. For the same compound, the selectivity ratio in data set [2] was above 28.6; in data set [5] it was 7.1. Moreover, the “Ratio IC50” value in data set [4] turned out to be 0.3; in data set [6], 0.5.
For `C=CCOc1c(OC)cc(/C=C/C(=O)c2ccc(OC)cc2)cc1-c1cc(/C=C/C(=O)c2ccc(OC)cc2)cc(OC)c1OCC=C`, the IC50 in the data set on Plasmodium falciparum [1] was 57 µM.
With `C=CCOc1ccc(/C=C/C(=O)c2cccc(C(=O)/C=C/c3ccc(OCC=C)c(OCC=C)c3)c2)cc1OCC=C`, the IC50 in the data set on Plasmodium falciparum [1] was 18 µM; in the data set on Plasmodium falciparum [3], 13.7 µM; in the data set on Plasmodium falciparum [7], 18.9 µM. The selectivity ratio in data set [2] and in data set [5] was above 5.6 throughout. In addition, the figures for the “Ratio IC50” value in data set [4] and in data set [6] were 1.05 and 0.76, respectively.
As to `C=CCOc1c(OC)cc(/C=C/C(=O)c2ccc(Cl)cc2)cc1-c1cc(/C=C/C(=O)c2ccc(Cl)cc2)cc(OC)c1OCC=C`, the IC50 in the data set on Plasmodium falciparum [1] is above 50 µM.
`C=CCOc1c(OC)cc(/C=C/C(=O)c2cc(OC)c(OC)c(OC)c2)cc1-c1cc(/C=C/C(=O)c2cc(OC)c(OC)c(OC)c2)cc(OC)c1OCC=C`: the IC50 with Plasmodium falciparum [1] came out at 5.5 µM; with Plasmodium falciparum [3], 2.2 µM; with Plasmodium falciparum [7] it was 1.7 µM. The selectivity ratio in data set [2] and in data set [5] was above 36.4 throughout. The “Ratio IC50” value in data set [4] is listed as 0.3; in data set [6], 0.4.
With `C=CCOc1c(OC)cc(/C=C/C(=O)c2ccc(OCCC)cc2)cc1-c1cc(/C=C/C(=O)c2ccc(OCCC)cc2)cc(OC)c1OCC=C`, the IC50 is 1.5 µM in the data set on Plasmodium falciparum [1], 12.2 µM in the data set on Plasmodium falciparum [3] and 11.6 µM in the data set on Plasmodium falciparum [7]. For the same compound, the selectivity ratio in data set [2] and in data set [5] was above 66.7 throughout. Besides, the entries for the “Ratio IC50” value in data set [4] and in data set [6] were 7.7 and 8.1, respectively.
In the data set on Plasmodium falciparum [1], `C=CCOc1ccc(/C=C/C(=O)c2cccc(C(=O)/C=C/c3ccc(OCC=C)c(OC)c3)c2)cc1OC` came in with an IC50 above 50 µM.
